Experimental data taken from US8362011B2, “Tricyclic triazolic compounds” (Laboratories del Dr. Esteve, S.A., priority 2007, dated 2013).

Row | Compound | melting point
1 | O=C(c1ccccc1)N1CC2OCc3cnnn3[C@@H]2C1 (stereo partly drawn) [Example 22, phenyl((5a,8a-trans)-5a,6,8,8a-tetrahydropyrrolo[3,4-b][1,2,3]triazolo[1,5-d][1,4]oxazin-7(4H)-yl)methanone] | 173 to 174 °C
2 | O=S(=O)(c1ccccc1F)N1CC2OCc3cnnn3[C@@H]2C1 (stereo partly drawn) [Example 17, (5a,8a-trans)-7-(2-fluorophenylsulfonyl)-4,5a,6,7,8,8a-hexahydro pyrrolo[3,4-b][1,2,3]triazolo[1,5-d][1,4]oxazine] | 178 to 180 °C
3 | c1cnc(N2CC3OCc4cnnn4[C@@H]3C2)nc1 (stereo partly drawn) [Example 35, (5a,8a-trans)-7-(pyrimidin-2-yl)-4,5a,6,7,8,8a-hexahydropyrrolo[3,4-b][1,2,3]triazolo[1,5-d][1,4]oxazine] | 256 to 257 °C
4 | O=S(=O)(c1ccccc1)N1CC2OCc3cnnn3[C@@H]2C1 (stereo partly drawn) [Example 16, (5a,8a-trans)-7-(phenylsulfonyl)-4,5a,6,7,8,8a-hexahydropyrrolo[3,4-b][1,2,3]triazolo[1,5-d][1,4]oxazine] | 168 to 170 °C
5 | CCN1CC2OCc3cnnn3[C@@H]2C1 (some centres unmarked) | 59 to 60 °C
6 | O=C(c1cccs1)N1CC2OCc3c(-c4ccccc4)nnn3[C@@H]2C1 (stereo partly drawn) [Example 30, ((5a,8a-trans)-3-phenyl-5a,6,8,8a-tetrahydropyrrolo[3,4-b][1,2,3]triazolo[1,5-d][1,4]oxazin-7(4H)-yl)(thiophen-2-yl)methanone] | 248 to 249 °C
7 | CS(=O)(=O)N1CC2OCc3c(-c4ccccc4)nnn3[C@@H]2C1 (some centres unmarked) [Example 19, (5a,8a)-7-(methylsulfonyl)-3-phenyl-4,5a,6,7,8,8a-hexahydropyrrolo[3,4-b][1,2,3]triazolo[1,5-d][1,4]oxazine] | 293 to 295 °C
8 | O=C(OCc1ccccc1)N1CC2OCc3c(-c4ccccc4)nnn3[C@@H]2C1 (stereo partly drawn) [Example 34, (5a,8a-trans)-benzyl3-phenyl-5a,6,8,8a-tetrahydropyrrolo[3,4-b][1,2,3] triazolo[1,5-d][1,4]oxazine-7(4H)-carboxylate] | 209 to 212 °C
9 | O=C(c1cccs1)N1CC2OCc3cnnn3[C@@H]2C1 (stereo partly drawn) [Example 26, ((5a,8a-trans)-5a,6,8,8a-tetrahydropyrrolo[3,4-b][1,2,3]triazolo[1,5-d][1,4]oxazin-7(4H)-yl)(thiophen-2-yl)methanone] | 186 to 188 °C
10 | O=S(=O)(c1ccc(F)cc1)N1CC2OCc3c(-c4ccccc4)nnn3[C@@H]2C1 (stereo partly drawn) [Example 20, (5a,8a-trans)-7-(4-fluorophenylsulfonyl)-3-phenyl-4,5a,6,7,8,8a-hexa hydropyrrolo[3,4-b][1,2,3]triazolo[1,5-d][1,4]oxazine] | 287 to 288 °C
11 | O=C(c1ccccc1)N1CC2OCc3c(-c4ccccc4)nnn3[C@@H]2C1 (stereo partly drawn) [Example 27, phenyl((5a,8a-trans)-3-phenyl-5a,6,8,8a-tetrahydropyrrolo[3,4-b][1,2,3]triazolo[1,5-d][1,4]oxazin-7(4H)-yl)methanone] | 237 to 239 °C
12 | COc1ccc(CN2CC3OCc4cnnn4[C@@H]3C2)cc1 (stereo partly drawn) [Example 1, (5a,8a-trans)-7-(4-methoxybenzyl)-4,5a,6,7,8,8a-hexahydropyrrolo[3,4-b][1,2,3]triazolo[1,5-d][1,4]oxazine] | 150 to 151 °C
13 | O=C(c1ccccc1F)N1CC2OCc3cnnn3[C@@H]2C1 (stereo partly drawn) [Example 21, (2-fluorophenyl)((5a,8a-trans)-5a,6,8,8a-tetrahydropyrrolo[3,4-b][1,2,3]triazolo[1,5-d][1,4]oxazin-7(4H)-yl)methanone] | 188 to 190 °C
14 | O=C(CCc1ccccc1)N1CC2OCc3cnnn3[C@@H]2C1 (stereo partly drawn) [Example 24, 3-phenyl-1-((5a,8a-trans)-5a,6,8,8a-tetrahydropyrrolo[3,4-b][1,2,3]triazolo[1,5-d][1,4]oxazin-7(4H)-yl)propan-1-one] | 134 to 135 °C
15 | CCCCNC(=O)N1CC2OCc3cnnn3[C@@H]2C1 (stereo partly drawn) [Example 31, (5a,8a-trans)-N-butyl-5a,6,8,8a-tetrahydropyrrolo[3,4-b][1,2,3]triazolo[1,5-d][1,4]oxazine-7(4H)-carboxamide] | 194 to 195 °C
16 | CS(=O)(=O)N1CC2OCc3cnnn3[C@@H]2C1 (stereo partly drawn) [Example 14, (5a,8a-trans)-7-(methylsulfonyl)-4,5a,6,7,8,8a-hexahydropyrrolo[3,4-b][1,2,3]triazolo[1,5-d][1,4]oxazine] | 204 to 206 °C
17 | O=S(=O)(c1ccc(F)cc1)N1CC2OCc3cnnn3[C@@H]2C1 (stereo partly drawn) [Example 18, (5a,8a-trans)-7-(4-fluorophenylsulfonyl)-4,5a,6,7,8,8a-hexahydro pyrrolo[3,4-b][1,2,3]triazolo[1,5-d][1,4]oxazine] | 208 to 209 °C

Further lines, results first:

Row | melting point | Compound
18 | 155 to 157 °C | CC(C)(C)OC(=O)N1C[C@@H]2OCc3cnnn3[C@H]2C1 [Example 53, (5aS,8aS)-tert-butyl 5a,6,8,8a-tetrahydropyrrolo[3,4-b][1,2,3]triazolo[1,5-d][1,4]oxazine-7(4H)-carboxylate]
19 | 216 °C (dec.) | c1ccc(N2CC3OCc4cnnn4[C@@H]3C2)nc1 (stereo partly drawn) [Example 44, (5a,8a-trans)-7-(pyridin-2-yl)-4,5a,6,7,8,8a-hexahydropyrrolo[3,4-b][1,2,3]triazolo[1,5-d][1,4]oxazine]
20 | 249 to 250 °C | CC(C)(C)OC(=O)N1C[C@@H]2OCc3c(-c4cccc(F)c4)nnn3[C@H]2C1 [Example 56, (5aS,8aS)-tert-butyl 3-(3-fluorophenyl)-5a,6,8,8a-tetrahydropyrrolo[3,4-b][1,2,3]triazolo[1,5-d][1,4]oxazine-7(4H)-carboxylate]
21 | 256 to 257 °C | c1ccc(-c2nnn3c2COC2CN(c4ccccc4)C[C@H]23)cc1 (stereo partly drawn) [Example 45, (5a,8a-trans)-3,7-diphenyl-4,5a,6,7,8,8a-hexahydropyrrolo[3,4-b][1,2,3] triazolo[1,5-d][1,4]oxazine]
22 | 256 to 257 °C | c1ccc(-c2nnn3c2COC2CN(c4ncccn4)C[C@H]23)cc1 (stereo partly drawn) [Example 40, (5a,8a-trans)-3-phenyl-7-(pyrimidin-2-yl)-4,5a,6,7,8,8a-hexahydro pyrrolo[3,4-b][1,2,3]triazolo[1,5-d][1,4]oxazine]
23 | 238 °C (dec.) | Clc1ccc(N2CC3OCc4cnnn4[C@@H]3C2)cc1 (stereo partly drawn) [Example 43, (5a,8a-trans)-7-(4-chlorophenyl)-4,5a,6,7,8,8a-hexahydropyrrolo[3,4-b][1,2,3]triazolo[1,5-d][1,4]oxazine]
24 | 236 to 237 °C | CC(C)(C)OC(=O)N1C[C@@H]2OCc3c(-c4ccccc4)nnn3[C@H]2C1 [Example 55, (5aS,8aS)-tert-butyl 3-phenyl-5a,6,8,8a-tetrahydropyrrolo[3,4-b][1,2,3] triazolo[1,5-d][1,4]oxazine-7(4H)-carboxylate]
25 | 222 to 223 °C | c1ccc(N2CC3OCc4cnnn4[C@@H]3C2)cc1 (stereo partly drawn) [Example 42, (5a,8a-trans)-7-phenyl-4,5a,6,7,8,8a-hexahydropyrrolo[3,4-b][1,2,3] triazolo[1,5-d][1,4]oxazine]
26 | 195 to 196 °C | Cc1nnn2c1CO[C@H]1CN(C(=O)OC(C)(C)C)C[C@@H]12 [Example 54, (5aS,8aS)-tert-butyl 3-methyl-5a,6,8,8a-tetrahydropyrrolo[3,4-b][1,2,3] triazolo[1,5-d][1,4]oxazine-7(4H)-carboxylate]
